Measurements from patent US9783536B2, “Nitrogen-containing heterocyclic compound or salt thereof” (FUJIFILM Corporation, priority 2013, dated 2017).
Counter-ions that a name gives are not always drawn. Like-named read-outs stand apart in the source and are kept apart here.

What was measured:
human PI3Kα protein = target: T1, human PI3Kα protein (Homo sapiens, UniProt P42336); assay: PI3Kα enzyme assay (ADP-Glo); assay type: biochemical; settings: read-out: PI3Kα enzyme inhibitory activity
T1 construct: purchased Carna Biosciences, Inc; host or cells: baculovirus expression system
Outline: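 Biotinylated human PI3Kα (baculovirus-expressed, 4.5 nmol/L) pre-incubated 15 min with compound in Tris-HCl pH 7.5, MgCl2, BSA; reaction 60 min at 25° C with 50 μmol/L PIP2 and 100 μmol/L ATP final. ADP quantified by ADP-Glo luminescence; IC50 calculated.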

[1] = target: T2, GST fusion human ERK2 protein (Homo sapiens, UniProt P28482); assay: ERK2 enzyme assay (1); assay type: biochemical; settings: read-out: ERK2 enzyme inhibitory activity (1)
T2 construct: purchased Carna Biosciences, Inc; host or cells: E. coli expression system
Outline: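 IC50 derived from the proportion of phosphorylated 5-FAM peptide, separated from unphosphorylated peptide by microfluidic mobility shift. Compound was first preincubated 15 min at room temperature with 2.5 nmol/L kinase at pH 7.5, then 43.1 μmol/L ATP plus 4.25 μmol/L substrate reacted 120 min at 25 °C.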

[2] = 4.5 nmol/L PI3Kα, PIP2 50 μmol/L, ATP 100 μmol/L
[3] = 2.5 nmol/L ERK2, ATP 43.1 μmol/L

T2 sequence (P28482 whole entry, the tested form may be a part): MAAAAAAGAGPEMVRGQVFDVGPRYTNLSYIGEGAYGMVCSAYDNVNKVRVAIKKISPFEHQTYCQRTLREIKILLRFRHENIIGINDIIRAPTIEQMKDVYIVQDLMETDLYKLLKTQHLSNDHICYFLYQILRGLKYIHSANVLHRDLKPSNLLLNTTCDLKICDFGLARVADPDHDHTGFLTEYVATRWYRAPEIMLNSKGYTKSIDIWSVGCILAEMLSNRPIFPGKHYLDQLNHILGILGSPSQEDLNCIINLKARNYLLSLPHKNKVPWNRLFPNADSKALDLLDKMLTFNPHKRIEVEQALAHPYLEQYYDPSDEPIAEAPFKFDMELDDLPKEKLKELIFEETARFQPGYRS
T1 sequence (P42336 whole entry): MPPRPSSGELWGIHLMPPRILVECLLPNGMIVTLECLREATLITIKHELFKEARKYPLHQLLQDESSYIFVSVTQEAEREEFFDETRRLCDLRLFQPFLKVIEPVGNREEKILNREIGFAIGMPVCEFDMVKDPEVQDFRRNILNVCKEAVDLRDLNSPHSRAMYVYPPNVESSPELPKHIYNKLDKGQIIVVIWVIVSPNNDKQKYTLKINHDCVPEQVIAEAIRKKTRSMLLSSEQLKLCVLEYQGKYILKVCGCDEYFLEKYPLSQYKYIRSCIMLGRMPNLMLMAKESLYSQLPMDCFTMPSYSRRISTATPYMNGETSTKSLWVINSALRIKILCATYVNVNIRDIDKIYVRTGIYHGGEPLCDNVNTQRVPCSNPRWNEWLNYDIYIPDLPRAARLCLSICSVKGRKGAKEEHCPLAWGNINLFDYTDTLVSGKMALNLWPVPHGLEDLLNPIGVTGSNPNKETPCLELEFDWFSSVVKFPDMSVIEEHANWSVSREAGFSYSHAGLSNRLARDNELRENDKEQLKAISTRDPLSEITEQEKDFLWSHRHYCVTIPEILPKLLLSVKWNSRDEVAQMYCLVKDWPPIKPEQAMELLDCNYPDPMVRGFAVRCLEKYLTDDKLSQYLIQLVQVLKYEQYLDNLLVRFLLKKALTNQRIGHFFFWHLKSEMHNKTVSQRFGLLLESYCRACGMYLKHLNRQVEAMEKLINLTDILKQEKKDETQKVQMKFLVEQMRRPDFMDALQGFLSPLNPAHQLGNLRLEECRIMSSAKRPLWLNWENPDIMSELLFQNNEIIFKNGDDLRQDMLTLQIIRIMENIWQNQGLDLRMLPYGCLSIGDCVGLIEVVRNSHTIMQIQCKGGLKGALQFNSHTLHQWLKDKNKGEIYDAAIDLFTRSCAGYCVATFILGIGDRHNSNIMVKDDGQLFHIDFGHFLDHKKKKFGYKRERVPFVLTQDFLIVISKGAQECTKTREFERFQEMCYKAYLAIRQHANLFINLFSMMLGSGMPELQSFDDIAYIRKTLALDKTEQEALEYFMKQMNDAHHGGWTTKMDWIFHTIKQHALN
T1 sequence (P27986 whole entry partner): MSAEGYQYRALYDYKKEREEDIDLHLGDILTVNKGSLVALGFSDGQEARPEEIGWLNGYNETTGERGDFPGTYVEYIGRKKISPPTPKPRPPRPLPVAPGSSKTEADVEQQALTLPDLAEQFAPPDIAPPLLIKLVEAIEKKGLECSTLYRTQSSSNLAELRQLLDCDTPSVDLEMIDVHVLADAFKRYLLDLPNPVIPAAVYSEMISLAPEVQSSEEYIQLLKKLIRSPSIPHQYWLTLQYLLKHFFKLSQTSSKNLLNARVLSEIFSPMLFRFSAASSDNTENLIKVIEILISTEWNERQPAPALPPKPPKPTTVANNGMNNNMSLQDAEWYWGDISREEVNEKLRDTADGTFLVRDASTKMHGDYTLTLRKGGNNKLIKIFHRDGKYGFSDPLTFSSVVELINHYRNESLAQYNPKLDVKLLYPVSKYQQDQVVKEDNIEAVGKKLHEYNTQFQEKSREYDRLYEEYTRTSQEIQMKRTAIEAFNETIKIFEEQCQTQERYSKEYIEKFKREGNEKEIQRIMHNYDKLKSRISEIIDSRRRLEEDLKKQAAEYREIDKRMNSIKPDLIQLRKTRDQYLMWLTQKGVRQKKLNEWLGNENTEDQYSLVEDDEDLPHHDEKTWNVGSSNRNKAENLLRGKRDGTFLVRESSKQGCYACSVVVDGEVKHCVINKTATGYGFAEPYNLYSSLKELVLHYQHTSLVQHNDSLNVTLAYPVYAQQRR

## CN(C)CCn1cc(-c2cnc3ccc(Nc4nnc(C5CCCC5)s4)nc3c2)cn1 [Example 0304, 5-Cyclopentyl-N-(7-(1-(2-(dimethylamino)ethyl)-1H-pyrazol-4-yl)-1,5-naphthyridin-2-yl)-1,3,4-thiadiazole-2-amine]
Human PI3Kα protein
  IC50: < 1000 nM
[1]; ERK2 enzyme assay (1)
  IC50: < 1000 nM

## OC1CCN(c2cnc3ccc(Nc4nnc(C5CCCC5)s4)nc3c2)CC1 [Example 0051]
Human PI3Kα protein; [2]
  IC50: 1000 to 10000 nM
[1]; [3]
  IC50: < 1000 nM

## COc1cccc(Nc2ccnc3ccc(Nc4nnc(C(C)C)s4)nc23)c1 [Example 0012]
Human PI3Kα protein; [2]
  IC50: < 1000 nM
[1]; [3]
  IC50: 1000 to 10000 nM

## COc1cnccc1-c1ccnc2ccc(Nc3nnc(C(C)C)s3)nc12 [Example 0279]
Human PI3Kα protein
  IC50: < 1000 nM
[1]; ERK2 enzyme assay (1)
  IC50: < 1000 nM

## COCCOc1cnc2ccc(Nc3nnc(C4CCCC4)s3)nc2c1 [Example 0041, 5-cyclopentyl-N-(7-(2-methoxyethoxy)-1,5-naphthyridin-2-yl)-1,3,4-thiadiazole-2-amine hydrochloride]
Human PI3Kα protein; [2]
  IC50: 10000 to 50000 nM
[1]; [3]
  IC50: < 1000 nM

## CC(C)c1nnc(Nc2ccc3nccc(-c4ccnnc4)c3n2)s1 [Example 0283]
Human PI3Kα protein
  IC50: < 1000 nM
[1]; ERK2 enzyme assay (1)
  IC50: < 1000 nM

## CC(C)c1nnc(Nc2ccc3nccc(-c4ccc(C(N)=O)cc4)c3n2)s1 [Example 0288]
Human PI3Kα protein
  IC50: < 1000 nM
[1]; ERK2 enzyme assay (1)
  IC50: < 1000 nM

## CC(=O)N1CCCC(Nc2cnc3ccc(Nc4nnc(C5CCCC5)s4)nc3c2)C1 (stereo not shown) [Example 0076]
Human PI3Kα protein; [2]
  IC50: < 1000 nM
[1]; [3]
  IC50: < 1000 nM

## CS(=O)(=O)N1CCC(Nc2cnc3ccc(Nc4nnc(C5CCCC5)s4)nc3c2)C1 (stereo not shown) [Example 0108]
Human PI3Kα protein; [2]
  IC50: 1000 to 10000 nM
[1]; [3]
  IC50: < 1000 nM

## Cn1cc(-c2cnc3ccc(Nc4cc[nH]n4)nc3c2)cn1 [Example 0033, 7-(1-methyl-1H-pyrazol-4-yl)-N-(1H-pyrazol-3-yl)-1,5-naphthyridine-2-aminetrifluoroacetate]
Human PI3Kα protein; [2]
  IC50: 1000 to 10000 nM
[1]; [3]
  IC50: 1000 to 10000 nM

## c1cc(Nc2cnc3ccc(Nc4nnc(C5CCCC5)s4)nc3c2)ccc1CN1CCOCC1 [Example 0221, N^2-(5-cyclopentyl-1,3,4-thiadiazol-2-yl)-N^7-(4-(morpholinomethyl)phenyl)-1,5-naphthyridine-2,7-diamine]
Human PI3Kα protein
  IC50: < 1000 nM
[1]; ERK2 enzyme assay (1)
  IC50: < 1000 nM

## CN(C)S(=O)(=O)c1nnc(Nc2ccc3ncc(-c4cnn(C)c4)cc3n2)s1 [Example 0193, N,N-dimethyl-5-((7-(1-methyl-1H-pyrazol-4-yl)-1,5-naphthyridin-2-yl)amino)-1,3,4-thiadiazole-2-sulfonamide]
Human PI3Kα protein; [2]
  IC50: < 1000 nM
[1]; [3]
  IC50: < 1000 nM

## Cn1cc(-c2cnc3ccc(Nc4nnc(Cc5ccccc5)s4)nc3c2)cn1 [Example 0165, 5-benzyl-N-(7-(1-methyl-1H-pyrazol-4-yl)-1,5-naphthyridin-2-yl)-1,3,4-thiadiazole-2-amine]
Human PI3Kα protein; [2]
  IC50: 10000 to 50000 nM
[1]; [3]
  IC50: < 1000 nM

## OCCN1CCN(c2cnc3ccc(Nc4nnc(C5CCCC5)s4)nc3c2)CC1 [Example 0046, 2-(4-(6-((5-cyclopentyl-1,3,4-thiadiazol-2-yl)amino)-1,5-naphthyridin-3-yl)piperazin-1-yl)ethanol hydrochloride]
Human PI3Kα protein; [2]
  IC50: 1000 to 10000 nM
[1]; [3]
  IC50: < 1000 nM

## CN1CCN(c2cnc3ccc(Nc4nnc(C5CCCC5)s4)nc3c2)CC1=O [Example 0054]
Human PI3Kα protein; [2]
  IC50: < 1000 nM
[1]; [3]
  IC50: < 1000 nM

## COCCc1nn(C)cc1-c1cnc2ccc(Nc3nnc(C(C)C)s3)nc2c1 [Example 0389, 5-isopropyl-N-(7-(3-(2-methoxyethyl)-1-methyl-1H-pyrazol-4-yl)-1,5-naphthyridin-2-yl)-1,3,4-thiadiazole-2-amine]
Human PI3Kα protein
  IC50: < 1000 nM
[1]; ERK2 enzyme assay (1)
  IC50: < 1000 nM

## c1cc(Nc2cnc3ccc(Nc4nnc(C5CCCC5)s4)nc3c2)ccn1 [Example 0208]
Human PI3Kα protein
  IC50: < 1000 nM
[1]; ERK2 enzyme assay (1)
  IC50: < 1000 nM

## CC(C)c1cnnc(Nc2ccc3ncc(-c4cnn(CCc5ccncc5)c4)cc3n2)c1 [Example 0377]
Human PI3Kα protein
  IC50: < 1000 nM
[1]; ERK2 enzyme assay (1)
  IC50: < 1000 nM

## CC(C)c1nnc(Nc2ccc3nccc(-c4ccncc4)c3n2)s1 [Example 0269, 5-isopropyl-N-(8-(pyridin-4-yl)-1,5-naphthyridin-2-yl)-1,3,4-thiadiazole-2-amine]
Human PI3Kα protein
  IC50: < 1000 nM
[1]; ERK2 enzyme assay (1)
  IC50: < 1000 nM

## COCCNc1cnc2ccc(Nc3nnc(C4CCCC4)s3)nc2c1 [Example 0308]
Human PI3Kα protein
  IC50: 1000 to 10000 nM
[1]; ERK2 enzyme assay (1)
  IC50: < 1000 nM

## c1nc2ccc(Nc3nnc(CC4CC4)s3)nc2cc1-c1cnn(CCCN2CCCC2)c1 [Example 0256, 5-(Cyclopropylmethyl)-N-(7-(1-(3-(pyrrolidin-1-yl)propyl)-1H-pyrazol-4-yl)-1,5-naphthyridin-2-yl)-1,3,4-thiadiazole-2-amine]
Human PI3Kα protein
  IC50: < 1000 nM
[1]; ERK2 enzyme assay (1)
  IC50: < 1000 nM

## c1cnc(Nc2cnc3ccc(Nc4nnc(C5CCCC5)s4)nc3c2)cn1 [Example 0209]
Human PI3Kα protein
  IC50: < 1000 nM
[1]; ERK2 enzyme assay (1)
  IC50: < 1000 nM

## Cc1ccncc1Nc1cnc2ccc(Nc3nnc(C4CCCC4)s3)nc2c1 [Example 0079]
Human PI3Kα protein; [2]
  IC50: 1000 to 10000 nM
[1]; [3]
  IC50: < 1000 nM

## CC(C)c1cnnc(Nc2ccc3ncc(-c4cnn(CCn5ccnc5)c4)cc3n2)c1 [Example 0380, 7-(1-(2-(1H-imidazol-1-yl)ethyl)-1H-pyrazol-4-yl)-N-(5-isopropylpyridazin-3-yl)-1,5-naphthyridine-2-amine]
Human PI3Kα protein
  IC50: < 1000 nM
[1]; ERK2 enzyme assay (1)
  IC50: < 1000 nM

## CC(C)Cc1cnc(Nc2ccc3ncc(-c4cnn(C)c4)cc3n2)s1 [Example 0143, 5-isobutyl-N-(7-(1-methyl-1H-pyrazol-4-yl)-1,5-naphthyridin-2-yl)thiazole-2-amine]
Human PI3Kα protein; [2]
  IC50: 1000 to 10000 nM
[1]; [3]
  IC50: < 1000 nM

## CN(c1cnc2ccc(Nc3nnc(C4CCCC4)s3)nc2c1)c1cnn(C)c1 [Example 0195, N^2-(5-cyclopentyl-1,3,4-thiadiazol-2-yl)-N^7-methyl-N^7-(1-methyl-1H-pyrazol-4-yl)-1,5-naphthyridine-2,7-diamine]
Human PI3Kα protein; [2]
  IC50: 1000 to 10000 nM
[1]; [3]
  IC50: < 1000 nM

## CC(C)c1cnnc(Nc2ccc3ncc(-c4cnn(Cc5cccnc5)c4)cc3n2)c1 [Example 0376]
Human PI3Kα protein
  IC50: < 1000 nM
[1]; ERK2 enzyme assay (1)
  IC50: < 1000 nM

## Nc1nnc(Nc2ccc3ncc(-c4cnn(CCN5CCOCC5)c4)cc3n2)s1 [Example 0254, N^2-(7-(1-(2-morpholinoethyl)-1H-pyrazol-4-yl)-1,5-naphthyridin-2-yl)-1,3,4-thiadiazole-2,5-diamine]
Human PI3Kα protein
  IC50: < 1000 nM
[1]; ERK2 enzyme assay (1)
  IC50: < 1000 nM

## c1ccc(Nc2cnc3ccc(Nc4nnc(C5CCCC5)s4)nc3c2)cc1 [Example 0200, N^2-(5-cyclopentyl-1,3,4-thiadiazol-2-yl)-N^7-phenyl-1,5-naphthyridine-2,7-diamine]
Human PI3Kα protein; [2]
  IC50: 1000 to 10000 nM
[1]; [3]
  IC50: 1000 to 10000 nM

## Cn1cc(-c2cnc3ccc(Nc4ncc(C5CCCC5)s4)nc3c2)cn1 [Example 0127]
Human PI3Kα protein; [2]
  IC50: 1000 to 10000 nM
[1]; [3]
  IC50: < 1000 nM

## O=C(Cc1ccc(Nc2cnc3ccc(Nc4nnc(C5CCCC5)s4)nc3c2)cc1)N1CCOCC1 [Example 0105]
Human PI3Kα protein; [2]
  IC50: < 1000 nM
[1]; [3]
  IC50: < 1000 nM

## CC(O)c1nnc(Nc2ccc3ncc(-c4cnn(CCCN5CCCC5)c4)cc3n2)s1 (stereo not shown) [Example 0259]
Human PI3Kα protein
  IC50: < 1000 nM
[1]; ERK2 enzyme assay (1)
  IC50: < 1000 nM

## CCC(C)(C)c1cnnc(Nc2ccc3ncc(-c4cnn(CCCN5CCCC5)c4)cc3n2)c1 [Example 0296]
Human PI3Kα protein
  IC50: < 1000 nM
[1]; ERK2 enzyme assay (1)
  IC50: < 1000 nM

## CC(C)(C)c1nnc(Nc2ccc3ncc(-c4cnn(CCCN5CCCC5)c4)cc3n2)s1 [Example 0366]
Human PI3Kα protein
  IC50: < 1000 nM
[1]; ERK2 enzyme assay (1)
  IC50: < 1000 nM

## CS(=O)(=O)N1CCN(c2cnc3ccc(Nc4nnc(C5CCCC5)s4)nc3c2)CC1 [Example 0053, 5-cyclopentyl-N-(7-(4-(methylsulfonyl)piperazin-1-yl)-1,5-naphthyridin-2-yl)-1,3,4-thiadiazole-2-amine hydrochloride]
Human PI3Kα protein; [2]
  IC50: 1000 to 10000 nM
[1]; [3]
  IC50: < 1000 nM

## CCc1nn(CCCN2CCCC2)cc1-c1cnc2ccc(Nc3cc(C(C)C)cnn3)nc2c1 [Example 0386, 7-(3-ethyl-1-(3-(pyrrolidin-1-yl)propyl)-1H-pyrazol-4-yl)-N-(5-isopropylpyridazin-3-yl)-1,5-naphthyridine-2-amine]
Human PI3Kα protein
  IC50: < 1000 nM
[1]; ERK2 enzyme assay (1)
  IC50: < 1000 nM

## COc1ccc(Nc2ccnc3ccc(Nc4nnc(C(C)C)s4)nc23)cc1 [Example 0013]
Human PI3Kα protein; [2]
  IC50: < 1000 nM
[1]; [3]
  IC50: 1000 to 10000 nM

## Cc1nnc(Nc2ccc3ncc(-c4cnn(CCCN5CCCC5)c4)cc3n2)s1 [Example 0323]
Human PI3Kα protein
  IC50: < 1000 nM
[1]; ERK2 enzyme assay (1)
  IC50: < 1000 nM

## CC(C)c1nnc(Nc2ccc3nccc(-c4cn[nH]c4)c3n2)s1 [Example 0284]
Human PI3Kα protein
  IC50: < 1000 nM
[1]; ERK2 enzyme assay (1)
  IC50: 1000 to 10000 nM

## CN1CCCN(c2cnc3ccc(Nc4nnc(C5CCCC5)s4)nc3c2)CC1 [Example 0060]
Human PI3Kα protein; [2]
  IC50: 10000 to 50000 nM
[1]; [3]
  IC50: < 1000 nM

## CC(C)c1cnnc(Nc2ccc3ncc(-c4cn(C)nc4CO[Si](C)(C)C(C)(C)C)cc3n2)c1 [Example 0393, 7-(3-(((tert-butyldimethylsilyl)oxy)methyl)-1-methyl-1H-pyrazol-4-yl)-N-(5-isopropylpyridazin-3-yl)-1,5-naphthyridine-2-amine]
Human PI3Kα protein
  IC50: 1000 to 10000 nM
[1]; ERK2 enzyme assay (1)
  IC50: < 1000 nM

## Cn1cc(-c2cnc3ccc(Nc4ccc(Cl)nn4)nc3c2)cn1 [Example 0152]
Human PI3Kα protein; [2]
  IC50: 1000 to 10000 nM
[1]; [3]
  IC50: < 1000 nM

## c1nc2ccc(Nc3nnc(C4CCCCO4)s3)nc2cc1-c1cnn(CCCN2CCCC2)c1 (stereo not shown) [Example 0244, N-(7-(1-(3-(pyrrolidin-1-yl)propyl)-1H-pyrazol-4-yl)-1,5-naphthyridin-2-yl)-5-(tetrahydro-2H-pyran-2-yl)-1,3,4-thiadiazole-2-amine]
Human PI3Kα protein
  IC50: < 1000 nM
[1]; ERK2 enzyme assay (1)
  IC50: < 1000 nM

## Cn1cc(-c2cnc3ccc(Nc4cccnc4)nc3c2)cn1 [Example 0038]
Human PI3Kα protein; [2]
  IC50: 10000 to 50000 nM
[1]; [3]
  IC50: 1000 to 10000 nM
